The values that follow come from PubChem BioAssay AID248 (DTP/NCI, 2004).

Each structure is given as a SMILES string. Several values for one entry are separate records, joined by “and”; a condition that tells them apart may be missing. Identical values can stand only once. Toxic doses and inconclusive results are not listed.

For the assay, the system named is L1210 leukemia ip in BDF1 mice, survival T/C. Kind of assay: NCI In Vivo Anticancer Drug Screen. Data for tumor model L1210 Leukemia (intraperitoneal) in B6D2F1 (BDF1) mice. To be noted: endpoint: mean survival time, higher = longer survival. The method in brief:
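Transplantable tumor model; survival measured in treated vs vehicle control mice. Value = treated/control.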

The mark [1] stands for this setting: dose: 100.0 mg/kg/injection, schedule: Q01DX009 (ip), vehicle: Klucel (hydroxypropylcellulose) (HPC).
The mark [2] stands for this setting: dose: 100.0 mg/kg/injection, schedule: Q04DX003 (ip), vehicle: Klucel (hydroxypropylcellulose) (HPC).
Setting [3] is: dose: 200.0 mg/kg/injection, schedule: Q04DX003 (ip), vehicle: Klucel (hydroxypropylcellulose) (HPC).
Where [4] appears, read: dose: 400.0 mg/kg/injection, schedule: Q04DX003 (ip), vehicle: Klucel (hydroxypropylcellulose) (HPC).
Where [5] appears, read: dose: 100.0 mg/kg/injection, schedule: Q01DX009 (ip), vehicle: saline with Tween-80.
[6] abbreviates: dose: 100.0 mg/kg/injection, schedule: Q04DX003 (ip), vehicle: saline with Tween-80.
Setting [7] is: dose: 200.0 mg/kg/injection, schedule: Q01DX009 (ip), vehicle: saline with Tween-80.
Setting [8] is: dose: 200.0 mg/kg/injection, schedule: Q04DX003 (ip), vehicle: saline with Tween-80.
Setting [9] is: dose: 400.0 mg/kg/injection, schedule: Q04DX003 (ip), vehicle: saline with Tween-80.
Setting [10] is: dose: 50.0 mg/kg/injection, schedule: Q04DX003 (ip), vehicle: Klucel (hydroxypropylcellulose) (HPC).
Setting [11] is: dose: 400.0 mg/kg/injection, schedule: Q01DX009 (ip), vehicle: saline with Tween-80.
[12] abbreviates: dose: 100.0 mg/kg/injection, schedule: Q04DX002 (ip), vehicle: Klucel (hydroxypropylcellulose) (HPC).
The mark [13] stands for this setting: dose: 200.0 mg/kg/injection, schedule: Q04DX002 (ip), vehicle: Klucel (hydroxypropylcellulose) (HPC).
Setting [14] is: dose: 400.0 mg/kg/injection, schedule: Q04DX002 (ip), vehicle: Klucel (hydroxypropylcellulose) (HPC).

On to `CCC1CN1CC1CO1` (stereo unspecified), for which the T/C is 101 % of control (dose: 4.0 mg/kg/injection, schedule: Q01DX Z (ip), vehicle: saline); 106 % of control (dose: 7.0 mg/kg/injection, schedule: Q01DX Z (ip), vehicle: saline); 95 % of control (dose: 10.0 mg/kg/injection, schedule: Q01DX Z (ip), vehicle: saline); 158 % of control and 196 % of control (dose: 33.0 mg/kg/injection, schedule: Q01DX Z (ip), vehicle: saline); 123 % of control and 183 % of control and 218 % of control (dose: 50.0 mg/kg/injection, schedule: Q01DX Z (ip), vehicle: saline); 120 % of control (dose: 75.0 mg/kg/injection, schedule: Q01DX Z (ip), vehicle: saline).

For `Cc1cccc(NS(=O)(=O)c2ccccc2)c1C`, the T/C by setting is: under setting [1], 91 % of control; under setting [2], 97 % of control; (dose: 200.0 mg/kg/injection, schedule: Q01DX009 (ip), vehicle: Klucel (hydroxypropylcellulose) (HPC)) 91 % of control; under setting [3], 93 % of control; (dose: 400.0 mg/kg/injection, schedule: Q01DX009 (ip), vehicle: Klucel (hydroxypropylcellulose) (HPC)) 98 % of control; under setting [4], 98 % of control.

As for `CCCCNC(=O)Nc1ccc(N(C)C)cc1`, the T/C reads like this: (dose: 50.0 mg/kg/injection, schedule: Q01DX009 (ip), vehicle: saline with Tween-80) 95 % of control; under setting [5], 92 % of control; under setting [6], 102 % of control; under setting [7], 90 % of control; under setting [8], 100 % of control; under setting [9], 109 % of control.

Turning to `CCCOC(=O)CSC#N`, the T/C was 106 % of control (dose: 5.0 mg/kg/injection, schedule: Q01DX001 (ip), vehicle: saline) and 100 % of control (dose: 10.0 mg/kg/injection, schedule: Q01DX001 (ip), vehicle: saline).

Regarding `CCC1(O)CC2c3ccccc3CCN2CC1CC(C)C` (stereo unspecified), the T/C (dose: 12.5 mg/kg/injection, schedule: Q01DX009 (ip), vehicle: Klucel (hydroxypropylcellulose) (HPC)) was 101 % of control; the T/C (dose: 25.0 mg/kg/injection, schedule: Q01DX009 (ip), vehicle: Klucel (hydroxypropylcellulose) (HPC)) was 116 % of control; the T/C (dose: 25.0 mg/kg/injection, schedule: Q04DX003 (ip), vehicle: Klucel (hydroxypropylcellulose) (HPC)) is 110 % of control; the T/C (dose: 50.0 mg/kg/injection, schedule: Q01DX009 (ip), vehicle: Klucel (hydroxypropylcellulose) (HPC)) is 108 % of control; the T/C under setting [10] was 98 % of control; the T/C under setting [1] is 121 % of control. The T/C runs as follows: under setting [2], 113 % of control; under setting [3], 107 % of control.

As for `CC(C)CC(NC(=O)OCc1ccccc1)C(=O)O` (stereo unspecified), the T/C reads like this: under setting [5], 87 % of control; under setting [6], 103 % of control; under setting [7], 97 % of control; under setting [8], 101 % of control; under setting [11], 95 % of control; under setting [9], 97 % of control.

`ClC1=C(Cl)C2(Cl)C(Br)C(Br)C1(Cl)C2(Cl)Cl` (stereo unspecified): the T/C was 95 % of control (dose: 100.0 mg/kg/injection, schedule: Q01DX009 (ip), vehicle: saline sonified); 102 % of control under setting [2]; 96 % of control (dose: 200.0 mg/kg/injection, schedule: Q01DX009 (ip), vehicle: saline sonified); 93 % of control under setting [3]; 95 % of control (dose: 400.0 mg/kg/injection, schedule: Q01DX009 (ip), vehicle: saline sonified); 96 % of control under setting [4].

As to `OCCN(CCO)c1nnc(-c2ccccc2)o1`, the T/C is, setting by setting: (dose: 100.0 mg/kg/injection, schedule: Q01DX001 (ip), vehicle: saline) 102 % of control; (dose: 200.0 mg/kg/injection, schedule: Q01DX001 (ip), vehicle: saline) 94 % of control and 90 % of control; (dose: 400.0 mg/kg/injection, schedule: Q01DX001 (ip), vehicle: saline) 101 % of control and 91 % of control.

Turning to `CC(C)C(NC(=O)OCc1ccccc1)C(=O)O` (stereo unspecified), the T/C by setting is: (dose: 9.37 mg/kg/injection, schedule: Q01DX009 (ip), vehicle: saline) 98 % of control; (dose: 18.75 mg/kg/injection, schedule: Q01DX009 (ip), vehicle: saline) 93 % of control; (dose: 37.5 mg/kg/injection, schedule: Q01DX009 (ip), vehicle: saline) 100 % of control; (dose: 37.5 mg/kg/injection, schedule: Q04DX003 (ip), vehicle: saline) 103 % of control; (dose: 75.0 mg/kg/injection, schedule: Q01DX001 (ip), vehicle: saline) 96 % of control; (dose: 75.0 mg/kg/injection, schedule: Q04DX003 (ip), vehicle: saline) 101 % of control. Also, under “dose: 150.0 mg/kg/injection, schedule: Q01DX001 (ip), vehicle: saline”, the T/C was 102 % of control.

Turning to `CC(O)CN1CCOCC1` (stereo unspecified), the T/C is 100 % of control (dose: 100.0 mg/kg/injection, schedule: Q04DX003 (ip), vehicle: saline); 97 % of control (dose: 200.0 mg/kg/injection, schedule: Q04DX003 (ip), vehicle: saline); 107 % of control (dose: 400.0 mg/kg/injection, schedule: Q04DX003 (ip), vehicle: saline).

Consider `CCC1(c2ccccc2)C(=O)NC(=S)N(C)C1=O` (stereo unspecified), for which the T/C is 95 % of control (dose: 75.0 mg/kg/injection, schedule: Q01DX001 (ip), vehicle: other) and 96 % of control (dose: 150.0 mg/kg/injection, schedule: Q01DX001 (ip), vehicle: other).

Consider `CCCCCCCCOC(=O)c1ccc2nc3cc4ccccc4cc3nc2c1`, for which the T/C under setting [12] was 94 % of control, the T/C under setting [13] was 92 % of control and the T/C under setting [14] is 92 % of control.

Consider `CCOC(=O)N(CCCl)C(=O)C(C)C`, for which the T/C was 92 % of control under setting [5], 96 % of control under setting [7] and 94 % of control under setting [11].

In the case of `O=C(Nc1ccc(Cl)c(Cl)c1)OCc1cc[n+]([O-])cc1`, the T/C runs as follows: under setting [12], 103 % of control; under setting [13], 98 % of control; under setting [14], 106 % of control.

Regarding `Nc1ccccc1SSc1ccccc1N`, the T/C reads like this: under setting [12], 86 % of control; under setting [13], 86 % of control.

Take `CCCCCCCCCCC/C=N/NC(=O)c1ccc[n+](C)c1`: the T/C (dose: 50.0 mg/kg/injection, schedule: Q01DX009 (ip), vehicle: saline) is 108 % of control; the T/C (dose: 100.0 mg/kg/injection, schedule: Q01DX009 (ip), vehicle: saline) is 108 % of control; the T/C (dose: 200.0 mg/kg/injection, schedule: Q01DX009 (ip), vehicle: saline) is 110 % of control.

In the case of `Nc1ccc2ncccc2c1N`, the T/C reads like this: (dose: 100.0 mg/kg/injection, schedule: Q04DX002 (ip), vehicle: saline) 107 % of control; (dose: 200.0 mg/kg/injection, schedule: Q04DX002 (ip), vehicle: saline) 100 % of control; (dose: 400.0 mg/kg/injection, schedule: Q04DX002 (ip), vehicle: saline) 87 % of control.

For the compound `C(=NCc1ccccc1)C1(c2ccccc2)OC1c1ccccc1` (stereo unspecified), the T/C under setting [2] is 91 % of control, the T/C under setting [3] was 87 % of control and the T/C under setting [4] was 88 % of control.

For `N#CCCN(C(=O)Nc1ccc(Cl)c(Cl)c1)C1CCCCC1`, the T/C was 107 % of control under setting [12], 100 % of control under setting [13] and 111 % of control under setting [14].

For the compound `N#Cc1sc2ccccc2c1O`, the T/C under setting [10] was 106 % of control, the T/C under setting [2] was 97 % of control and the T/C under setting [3] was 95 % of control.
